In US10597366B2, “Aryl ethers and uses thereof” (Peloton Therapeutics, Inc., priority 2013, dated 2020):

Test system: 786-O-Hif-Luc cells (luciferase gene driven by multiple HIF responsive elements)
Assay: Luciferase Assay
Format: cell-based
Conditions: 24 h, 786-O-Hif-Luc cells, about 24 hours; read-out: Mean Luciferease EC50
Description: A pool of infected cells were then selected against 2 μg/mL of puromycin (P8833, Sigma) for 10 days followed by limited dilution to select single clones.
Each concentration was tested in triplicate. After about 24 hours, luciferase activity was determined using ONE-Glo Luciferase Assay Reagent (E6110, Promega) following the manufacturer's recommended procedure. EC50 were calculated by using Dotmatics software.

Row | EC50 | Compound
1 | 1.3 µM | CS(=O)(=O)c1ccc(Oc2cc(F)cc(C#N)c2)c2c1[C@H](O)[C@H](F)[C@@H]2O [Compound 296, 3-fluoro-5-[(1S,2R,3R)-2-fluoro-1,3-dihydroxy-7-methylsulfonyl-indan-4-yl]oxy-benzonitrile]
2 | 2.8 µM | C[C@@]1(F)Cc2c(Oc3cc(F)cc(C#N)c3)ccc(S(C)(=O)=O)c2[C@@H]1O [Compound 300, 3-fluoro-5-(((1S,2R)-2-fluoro-1-hydroxy-2-methyl-7-(methylsulfonyl)-2,3-dihydro-1H-inden-4-yl)oxy)benzonitrile]
3 | 2.1 µM | C[C@@H]1Cc2c(Oc3cc(F)cc(C#N)c3)ccc(S(C)(=O)=O)c2[C@@H]1O [Compound 301, 3-fluoro-5-(((1R,2R)-1-hydroxy-2-methyl-7-(methylsulfonyl)-2,3-dihydro-1H-inden-4-yl)oxy)benzonitrile]
4 | 0.11 µM | CS(=O)(=NC#N)c1ccc(Oc2cc(F)cc(C#N)c2)c2c1[C@H](O)[C@H](F)C2 (stereo partly drawn) [Compound 302, N-(((2R,3S)-7-(3-cyano-5-fluorophenoxy)-2-fluoro-3-hydroxy-2,3-dihydro-1H-inden-4-yl)(methyl)(oxo)-λ^6-sulfanylidene)cyanamide]
5 | 0.63 µM | CS(=O)(=O)c1ccc(Oc2cc(F)cc(C#N)c2)c2c1[C@H](O)C(F)(F)[C@@H]2O [Compound 312, 3-[(1S,3R)-2,2-difluoro-1,3-dihydroxy-7-methylsulfonyl-indan-4-yl]oxy-5-fluoro-benzonitrile]
6 | 1.1 µM | CS(=O)(=O)c1ccc(Oc2cncc(C#N)c2)c2c1[C@H](O)[C@H](F)C2 [Compound 313, 5-(((1S,2R)-2-fluoro-1-hydroxy-7-(methylsulfonyl)-2,3-dihydro-1H-inden-4-yl)oxy)nicotinonitrile]
7 | 0.15 µM | N#Cc1cncc(Oc2ccc(S(=N)(=O)C(F)(F)F)c3c2CC(F)(F)[C@H]3O)c1 (stereo partly drawn) [Compound 314, 5-(((1S)-2,2-difluoro-1-hydroxy-7-(S-(trifluoromethyl)sulfonimidoyl)-2,3-dihydro-1H-inden-4-yl)oxy)nicotinonitrile]
8 | 0.48 µM | CS(=O)(=O)c1ccc(Oc2cncc(Br)c2)c2c1[C@H](O)C(F)(F)C2 [Compound 324, (S)-4-((5-Bromopyridin-3-yl)oxy)-2,2-difluoro-7-(methylsulfonyl)-2,3-dihydro-1H-inden-1-ol]
9 | 0.22 µM | N#Cc1cc(F)cc(Oc2ccc(S(N)(=O)=O)c3c2C[C@@H](F)[C@H]3O)c1 [Compound 334, (2R,3S)-7-(3-cyano-5-fluoro-phenoxy)-2-fluoro-3-hydroxy-indane-4-sulfonamide]
10 | 0.067 µM | N#Cc1cc(F)cc(Oc2ccc(S(N)(=O)=O)c3c2[C@@H](F)[C@@H](F)[C@H]3O)c1 [Compound 336, (1R,2S,3S)-7-(3-cyano-5-fluoro-phenoxy)-1,2-difluoro-3-hydroxy-indane-4-sulfonamide]

Same assay, conditions: 24 h, read-out: Mean Luciferease EC50

Row | EC50 | Compound
11 | 0.0061 µM | N#Cc1cc(F)cc(Oc2ccc(S(N)(=O)=O)c3c2[C@@H](F)C(F)(F)[C@H]3O)c1 [Compound 338, (1R,3S)-7-(3-cyano-5-fluoro-phenoxy)-1,2,2-trifluoro-3-hydroxy-indane-4-sulfonamide]
12 | 0.25 µM | N#Cc1cc(F)cc(Oc2ccc(S(N)(=O)=O)c3c2[C@H](F)C(F)(F)[C@H]3O)c1 [Compound 339, (1S,3S)-7-(3-cyano-5-fluoro-phenoxy)-1,2,2-trifluoro-3-hydroxy-indane-4-sulfonamide]

Test system: HIF-2α HIS TAG-PASB Domain
Assay: HIF-2α Scintillation Proximity Assay (SPA)
Format: binding
Conditions: compounds listed by structure and IUPAC name
Description: The percent inhibition was determined and IC50 values were calculated using the Dotmatics system based on the following equation: % inhibition=[(high control sample)/(high control low control)]×100.

Row | IC50 | Compound
13 | > 100 µM | O=[N+]([O-])c1c(F)cccc1Oc1cccc(Cl)c1 [1-(3-chlorophenoxy)-3-fluoro-2-nitro-benzene]
14 | > 100 µM | CN(C)Cc1c(S(=O)(=O)C(F)F)ccc(Oc2cc(F)cc(Cl)c2)c1Cl [1-[2-chloro-3-(3-chloro-5-fluoro-phenoxy)-6-(difluoromethylsulfonyl)phenyl]-N,N-dimethyl-methanamine]
15 | > 100 µM | O=S(=O)(c1ccc(Oc2cc(F)cc(Cl)c2)c(Cl)c1CNCC1CCOC1)C(F)F (stereo not drawn) [1-[2-chloro-3-(3-chloro-5-fluoro-phenoxy)-6-(difluoromethylsulfonyl)phenyl]-N-(tetrahydrofuran-3-ylmethyl)methanamine]
16 | > 100 µM | O=C(O)c1cc(S(=O)(=O)C(F)(F)F)ccc1Oc1cc(F)cc(Cl)c1 [2-(3-chloro-5-fluorophenoxy)-5-((trifluoromethyl)sulfonyl)benzoic acid]
17 | > 100 µM | Cc1ccccc1Oc1ccc(S(=O)(=O)C(F)(F)F)cc1Br [2-bromo-1-(2-methylphenoxy)-4-(trifluoromethylsulfonyl)benzene]
18 | > 100 µM | NC(=O)c1c(S(=O)(=O)C(F)F)ccc(Oc2cc(F)cc(Cl)c2)c1Br [2-bromo-3-(3-chloro-5-fluoro-phenoxy)-6-(difluoromethylsulfonyl)benzamide]
19 | > 100 µM | O=C(NO)c1c(S(=O)(=O)C(F)F)ccc(Oc2cc(F)cc(Cl)c2)c1Br [2-bromo-3-(3-chloro-5-fluoro-phenoxy)-6-(difluoromethylsulfonyl)benzenecarbohydroxamic acid]
20 | > 100 µM | O=C(O)c1c(S(=O)(=O)C(F)F)ccc(Oc2cc(F)cc(Cl)c2)c1Br [2-bromo-3-(3-chloro-5-fluoro-phenoxy)-6-(difluoromethylsulfonyl)benzoic acid]
21 | > 100 µM | N#Cc1cccc(Oc2cc(F)cc(Cl)c2)c1Br [2-bromo-3-(3-chloro-5-fluoro-phenoxy)benzonitrile]
22 | > 100 µM | CS(=O)(=O)c1ccc(Oc2cc(C#N)cc(Oc3ccc(S(C)(=O)=O)c4c3CC(F)(F)[C@H]4O)c2)c2c1[C@H](O)C(F)(F)C2 [3,5-bis[[(1S)-2,2-difluoro-1-hydroxy-7-methylsulfonyl-indan-4-yl]oxy]benzonitrile]
23 | > 100 µM | O=C(NCCO)c1c(S(=O)(=O)C(F)F)ccc(Oc2cc(F)cc(Cl)c2)c1C(F)F [3-(3-chloro-5-fluoro-phenoxy)-2-(difluoromethyl)-6-(difluoromethylsulfonyl)-N-(2-hydroxyethyl)benzamide]
24 | > 100 µM | NS(=O)(=O)c1cccc(Oc2cc(F)cc(Cl)c2)c1[N+](=O)[O-] [3-(3-chloro-5-fluoro-phenoxy)-2-nitro-benzenesulfonamide]
25 | > 100 µM | N#Cc1cc(F)cc(Oc2ccc(Cl)c3c2CCC3)c1 [3-(7-chloroindan-4-yl)oxy-5-fluoro-benzonitrile]
26 | > 100 µM | O=S(=O)(c1ccc(Oc2cc(F)cc(Cl)c2)c(CC(O)CO)c1)C(F)(F)F (stereo not drawn) [3-[2-(3-chloro-5-fluoro-phenoxy)-5-(trifluoromethylsulfonyl)phenyl]propane-1,2-diol]
27 | > 100 µM | N#Cc1cccc(Oc2ccc(C(F)(F)F)c(Cl)c2N)c1 [3-[2-amino-3-chloro-4-(trifluoromethyl)phenoxy]benzonitrile]
28 | > 100 µM | NC(=O)c1cc(F)cc(Oc2ccc(S(=O)(=O)C(F)(F)F)cc2Br)c1 [3-[2-bromo-4-(trifluoromethylsulfonyl)phenoxy]-5-fluoro-benzamide]
29 | > 100 µM | O=C(O)c1cc(F)cc(Oc2ccc(S(=O)(=O)C(F)(F)F)cc2Br)c1 [3-[2-bromo-4-(trifluoromethylsulfonyl)phenoxy]-5-fluoro-benzoic acid]
30 | > 100 µM | Cc1c(Oc2cc(F)cc(C#N)c2)ccc(S(=O)(=O)C(F)(F)F)c1C(O)CO (stereo not drawn) [3-[3-(1,2-dihydroxyethyl)-2-methyl-4-(trifluoromethylsulfonyl)phenoxy]-5-fluoro-benzonitrile]
31 | > 100 µM | N#Cc1cc(F)cc(Oc2ccc(S(=O)(=O)C(F)(F)F)c3c2C[C@@H](F)[C@@H]3N)c1 [3-[(1R,2R)-1-amino-2-fluoro-7-(trifluoromethylsulfonyl)indan-4-yl]oxy-5-fluoro-benzonitrile]
32 | > 100 µM | N#Cc1cccc(Oc2ccc(S(=O)(=O)C(F)F)c3cccnc23)c1 [3-[[5-(difluoromethylsulfonyl)-8-quinolyl]oxy]benzonitrile]
33 | > 100 µM | CN(C)[S+]([O-])c1ccc(Oc2cc(F)cc(Cl)c2)c(Br)c1 (stereo not drawn) [3-bromo-4-(3-chloro-5-fluoro-phenoxy)-N,N-dimethyl-benzenesulfinamide]
34 | > 100 µM | Cc1cc(S(C)(=O)=O)c2c(c1Oc1cc(F)cc(C#N)c1)CCC2O (stereo not drawn) [3-fluoro-5-(1-hydroxy-5-methyl-7-methylsulfonyl-indan-4-yl)oxy-benzonitrile]
35 | > 100 µM | Cc1cc(Oc2cc(F)cc(C#N)c2)c2c(c1S(C)(=O)=O)C(O)CC2 (stereo not drawn) [3-fluoro-5-(1-hydroxy-6-methyl-7-methylsulfonyl-indan-4-yl)oxy-benzonitrile]
36 | > 100 µM | CSc1ccc(Oc2cc(F)cc(C#N)c2)c2c1C(=O)CC2 [3-fluoro-5-(7-methylsulfanyl-1-oxo-indan-4-yl)oxy-benzonitrile]
37 | > 100 µM | CC1Cc2c(Oc3cc(F)cc(C#N)c3)ccc(S(C)(=O)=O)c2C1=O (stereo not drawn) [3-fluoro-5-((2-methyl-7-(methylsulfonyl)-1-oxo-2,3-dihydro-1H-inden-4-yl)oxy)benzonitrile]
38 | > 100 µM | C[C@H]1Cc2c(Oc3cc(F)cc(C#N)c3)ccc(S(C)(=O)=O)c2[C@H]1O [3-fluoro-5-(((1S,2S)-1-hydroxy-2-methyl-7-(methylsulfonyl)-2,3-dihydro-1H-inden-4-yl)oxy)benzonitrile]
39 | > 100 µM | Cn1cc(Oc2ccc(S(=O)(=O)C(F)(F)F)c3c2CCC3O)cn1 (stereo not drawn) [4-(1-methylpyrazol-4-yl)oxy-7-(trifluoromethylsulfonyl)indan-1-ol]
40 | > 100 µM | CS(=O)(=O)c1ccc(Oc2cc(F)cc(F)c2)c2c1C(C#N)CC2 (stereo not drawn) [4-(3,5-difluorophenoxy)-7-methylsulfonyl-indane-1-carbonitrile]
41 | > 100 µM | O=S(=O)(c1ccc(Oc2cc(F)cc(F)c2)c2c1C(O)CC2)N1CCOCC1 (stereo not drawn) [4-(3,5-difluorophenoxy)-7-morpholinosulfonyl-indan-1-ol]
42 | > 100 µM | OC1CCc2c(Oc3cc(F)cc(Cl)c3)cccc21 (stereo not drawn) [4-(3-chloro-5-fluoro-phenoxy)indan-1-ol]
